“Also recorded” adds a separate entry of the source. Where a name gives a salt, the structure may show the parent alone. Read-outs that look alike come from different tables or passages of the source.
What was measured:
Type in all cases: in vivo
GCL cells = assay: Rat retinal ischemia model: number of GCL cells (HE staining); conditions: 10 mg/kg i.v.; for Effect on decrease in number of optic nerve cells / optic nerve cell death caused by ischemia: result in words; for Number of GCL cells, A1 (mean): retina point A1, 2 mm from optic nerve papilla; for Number of GCL cells, A1 (mean) / Number of GCL cells, A3 (mean) / Number of GCL cells, A1 + A3 (mean): 60 min ischemia; for Number of GCL cells, A3 (mean): retina point A3, 2 mm from optic nerve papilla; for Number of GCL cells, A1 + A3 (mean): sum of A1 and A3; for Inhibitory rate of decrease in number of optic nerve cells, A1+A3: sum of A1 and A3 data
Protocol: (§1) A 27 G injection needle (4) was attached to an end of the tube. A part about 20 cm below the bottom end of the perfusion line was attached to a supporting bar and the part was lightly fixed by a stand.
(§2) A rat (Crj:CD(SD) IGS, from CHARLES RIVER LABORATORIES JAPAN, Inc.) was anesthetized with pentobarbital sodium (40 mg/kg, i.p.) and the pupil of the eye to be operated were preliminarily dilated by using a mydriasis agent (MYDRIN P; manufactured by SANTEN PHARMACEUTICAL Co., Ltd.).
(§3) Before the surgical operation, the bottle (1) was held up so that the water surface in the perfusion bottle was located on 163.5 cm above the rat eyes in the state of closing the perfusion line (loading an intraocular pressure of […]). After opening the top end, the perfusion line was connected to a differential pressure transducer and the height was adjusted to give a predetermined pressure, followed by closing the line. With confirming the mydriasis under a stereoscopic microscope, the stopper of the perfusion line was loosened and the solution was dropped little by little from the needle point. As the cornea was tightly sandwiched between tweezers and an injection needle (4), the injection needle (4) was punctured into the anterior chamber (5) from the nasal side. Next, the perfusion line was opened to load pressure in the anterior chamber (5). After loading the ischemia for 60 minutes, the injection needle (4) was taken off and the animals were awaken out of the anesthesia with keeping the body temperature at 37° C. In the sham-ischemia group, an injection needle was punctured into the anterior chamber from the nasal side in the state of closing the perfusion line, followed by taking off after 60 minutes.
(§4) (2R)-2-propyloctanoic acid was intravenously administered via the tail vein in a dose of 10 mg/mL/kg once a day for 7 days from the day of the ischemic operation. Dizocilpine maleate ((+)-MK-801 maleate, hereinafter referred to simply as “MK-801”) which is a positive control compound was intravenously administered via the tail vein in a dose of 10 mg/mL/kg once alone 30 minutes before the ischemic operation.
(§5) A rat was anesthetized with pentobarbital sodium (40 mg/kg, i.p.) and fixed at the dorsal position. After incising the subcostal skin, with grasping the xiphoid process with tweezers or a kocher, the upper end of the anterior abdominal muscle was horizontally incised with scissors. Next, after reversing the chest wall, the xiphoid process was grasped with a kocher or the chest wall was grasped with a kocher to expose the heart. The heart was grasped with tweezers and the left ventricular was incised with scissors. Then, the front end of a disposable oral probe for mouse connected to a blood transfusion tube was introduced from the left ventricular to the aorta and the end of the oral probe was grasped with a clamp. The atrial auricula was incised and perfused with physiological saline containing heparin (10 U/mL). The blood transfusion tube and the disposable oral probe for mouse were replaced with fresh ones and perfusion with a 10% neutral formalin buffer was conducted in the same manner as described above for fixation. After fixing, both eyes were taken out, stored in a sample bottle filled with the 10% neutral formalin buffer and subjected to the following evaluation.
(§6) An ischemic eye was excised, embedded and sliced. Next, hematoxylin-eosin staining, GFAP (glial fibrillary acidic protein) staining and S100 staining by the methods as shown in the following (5-2) to (5-4) were carried out.
(1) deparaffinization; (2) water washing; (3) nuclear staining with hematoxylin for 20 minutes; (4) water washing and color development for 10 minutes; (5) eosin for 3 minutes; and (6) dehydration→penetration→enclosure.
Using HE-stained samples thus obtained, GCL cells at two points (A1, A3; refer to FIG. 2) on the retina which are 2 mm apart from the optic nerve papilla (A2) were counted (cells/mm^2).

GFAP-positive cells = assay: Rat retinal ischemia model: GFAP-positive cell number and area (GFAP staining); conditions: for Effect on changes in number of GFAP-positive cells / Effect on increases in GFAP positive areas: result in words; for inhibition at 10 mg/kg: Rattus norvegicus, iv; for Number of GFAP positive cells, A2 (mean): point A2 (optic nerve papilla); for Area of GFAP positive cells, A2 (mean): point A2; for Area of GFAP positive cells, A3 (mean) / Number of GFAP positive cells, A3 (mean): point A3; for Area of GFAP positive cells, A4 (mean): point A4 (optic nerve)
Protocol: as §1, §2, §3, §4, §5, §6
An anti-GFAP rabbit antibody (cat No. Z0334, DAKO) was used. […]

S100-positive cells = assay: Rat retinal ischemia model: S100-positive cell number and area (S100 staining); conditions: for Effect on increases in S100 positive areas / Effect on changes in number of S100-positive cells: result in words; for Effect on changes in number of S100-positive cells: A2 and A4 points; for inhibition at 10 mg/kg: Rattus norvegicus, S100, iv; for Area of S100 positive cells, A1 (mean): point A1; for Area of S100 positive cells, A2 (mean) / Number of S100 positive cells, A2 (mean): point A2; for Area of S100 positive cells, A3 (mean): point A3; for Area of S100 positive cells, A4 (mean) / Number of S100 positive cells, A4 (mean): point A4 (optic nerve)
Protocol: as §1, §2, §3, §4, §5, §6
An anti-S 100 rabbit antibody (cat No. Z0311, DAKO) was used. […]

[1] = Single intravenous administration toxicity test in dogs; conditions: 100 mg/kg, single i.v.
Excerpt: Since toxicity of (2R)-2-propyloctanoic acid, a salt thereof or prodrug thereof is low, it can be considered to be sufficiently safe for medicinal uses.

SMILES	Effect on decrease in number of optic nerve cells / optic nerve cell death caused by ischemia (GCL cells)	Number of GCL cells, A1 (mean) (GCL cells) [cells/mm^2]	Number of GCL cells, A3 (mean) (GCL cells) [cells/mm^2]	Number of GCL cells, A1 + A3 (mean) (GCL cells) [cells/mm^2]	Inhibitory rate of decrease in number of optic nerve cells, A1+A3 (GCL cells) [%]	Effect on changes in number of GFAP-positive cells (GFAP-positive cells; 10 mg/kg i.v.)	Effect on increases in GFAP positive areas (GFAP-positive cells; 10 mg/kg i.v.)	Area of GFAP positive cells, A1 (mean) (GFAP-positive cells; point A1, 10 mg/kg i.v.) [% AREA]	Number of GFAP positive cells, A1 (mean) (GFAP-positive cells; point A1, 10 mg/kg i.v.) [cells/mm^2]	Number of GFAP positive cells, A2 (mean) (GFAP-positive cells; 10 mg/kg i.v.) [cells/mm^2]	Area of GFAP positive cells, A2 (mean) (GFAP-positive cells; 10 mg/kg i.v.) [% AREA]	Area of GFAP positive cells, A3 (mean) (GFAP-positive cells; 10 mg/kg i.v.) [% AREA]	Number of GFAP positive cells, A3 (mean) (GFAP-positive cells; 10 mg/kg i.v.) [cells/mm^2]	Area of GFAP positive cells, A4 (mean) (GFAP-positive cells; 10 mg/kg i.v.) [% AREA]	Effect on increases in S100 positive areas (S100-positive cells; 10 mg/kg i.v.)	Effect on changes in number of S100-positive cells (S100-positive cells; 10 mg/kg i.v.)	Area of S100 positive cells, A1 (mean) (S100-positive cells; 10 mg/kg i.v.) [% AREA]	Area of S100 positive cells, A2 (mean) (S100-positive cells; 10 mg/kg i.v.) [% AREA]	Number of S100 positive cells, A2 (mean) (S100-positive cells; 10 mg/kg i.v.) [cells/mm^2]	Area of S100 positive cells, A3 (mean) (S100-positive cells; 10 mg/kg i.v.) [% AREA]	also measured
CCCCCC[C@@H](CCC)C(=O)O [(2R)-2-propyloctanoic acid]	showed inhibitory effects; also recorded: remarkable effect of inhibiting optic nerve cell death	116.4	129.9	246.3	52.1	showed inhibitory effects	showed inhibitory effects	4.2	52.6	317.9	10.1	4.2	52.9	16.8	showed inhibitory effects	showed an inhibitory effect	1.9	3.5	295.4	1.6	inhibition at 10 mg/kg (GFAP-positive cells; point A1, 10 mg/kg i.v., read-out: Inhibitory rate of change in number of GFAP-positive cells at point A1): 69%; inhibition at 10 mg/kg (GFAP-positive cells; point A1 as printed, 10 mg/kg i.v., read-out: Inhibitory rate of increase in GFAP positive area at the point A1): 87.8%; inhibition at 10 mg/kg (S100-positive cells; point A4, 10 mg/kg i.v., read-out: Inhibitory rate of increase in S100 positive area at point A4): 93.9%; inhibition at 10 mg/kg (S100-positive cells; point A4, 10 mg/kg i.v., read-out: Inhibitory rate of increase in number of S100-positive cells at point A4): 31.2%; Area of S100 positive cells, A4 (mean) (S100-positive cells; 10 mg/kg i.v.): 3.3 % AREA; Number of S100 positive cells, A4 (mean) (S100-positive cells; 10 mg/kg i.v.): 307.7 cells/mm^2; Lethality after single intravenous administration [1]: no fatal case was observed
C[C@]12N[C@H](Cc3ccccc31)c1ccccc12 [MK-801, Dizocilpine maleate, reference compound]	showed inhibitory effects	125.1	134.9	260.0	59.5	showed inhibitory effects	showed inhibitory effects	3.4	47.8	275.3	11.0	3.6	56.8	17.9	showed inhibitory effects	showed an inhibitory effect exclusively on the increase in the number of S100-positive cells at the A2 point	1.9	3.8	212.9	2.1	inhibition at 10 mg/kg (GFAP-positive cells; read-out: Inhibitory rate of change in number of GFAP-positive cells at point A1): 42.9%; inhibition at 10 mg/kg (GFAP-positive cells; read-out: Inhibitory rate of increase in GFAP positive area at the point A1): 78.3%; inhibition at 10 mg/kg (S100-positive cells; read-out: Inhibitory rate of increase in S100 positive area at point A4): 51.2%; Area of S100 positive cells, A4 (mean) (S100-positive cells; 10 mg/kg i.v.): 6.8 % AREA; Number of S100 positive cells, A4 (mean) (S100-positive cells; 10 mg/kg i.v.): 600.2 cells/mm^2

From patent US20090082455A1, “THERAPEUTIC AGENT FOR OPHTHALMIC DISEASE” (ONO PHARMACEUTICAL CO. LTED, priority 2005, published 2009)
